# According to patent US6552009B2, “Compositions and methods of treating abnormal cell proliferation” (Gentrix LLC, priority 1998, dated 2003):
# Test system: moderate to severe papular-pustular acne
# Assay type: in vivo, human
# Details: for skin irritation: human, in vivo
# Experimental: This example compares therapeutically applied retinyl palmitate, retinoic acid, calcitriol, and combinations thereof in a cream at different concentrations with the effectiveness of the cream without any of the above compounds present in treating acne. The base cream used to prepare the experimental formulations is the commercially available […] cream. The different compounds at different concentrations were added to the cream and mixed very well. Sixty six volunteers were recruited and were randomly assigned to each of the groups. the subjects were selected on the basis of their having moderate to severe papular-pustular acne. Each group consisted of 3 males and 3 females. No other acne treatment was permitted during the period. Preparations were applied to the face in the morning and evening after washing the face with ordinary soap. Observations were made at time 0, 1, 4, and 8 weeks to assure that treatment was carried out according to direction. Judgments of “worse”, “no change”, “mild”, and “good” were made after 8 weeks of treatment.
SMILES,skin irritation,improvement in treating acne versus lower concentrations (concentrations at about 1.5% and more)
CC1=C(/C=C/C(C)=C/C=C/C(C)=C/CO)C(C)(C)CCC1=O [4-oxo-retinol],did not,–
"C=C1/C(=C\C=C2/CCC[C@]3(C)[C@@H]([C@H](C)CCCC(C)(C)O)CC[C@@H]23)C[C@@H](O)C[C@@H]1O [calcitriol, reference compound]",caused skin irritation,–
"CC1=C(/C=C/C(C)=C/C=C/C(C)=C/C(=O)O)C(C)(C)CCC1 [retinoic acid, reference compound]",caused skin irritation,–
CCCCCCCCCCCCCCCC(=O)OC/C=C(C)/C=C/C=C(C)/C=C/C1=C(C)CCCC1(C)C [retinyl palmitate],did not,remarkable improvement over lower concentrations
